According to ChEMBL document CHEMBL1126306, “Inactivation of calpain by peptidyl fluoromethyl ketones” (J Med Chem, 1992):
Where a SMILES comes first, the peptide text is derived from it.

Test: The rate of inactivation expressed as second-order rate constant is independent of concentration.
Conditions: for kinact/KI: read-out: k2

kinact/KI [M⁻¹ s⁻¹]	k2 [M⁻¹ s⁻¹]	Compound
7.4e+06		C[C@H](NC(=O)[C@H](Cc1ccc(O)cc1)NC(=O)OCc1ccccc1)C(=O)CF
17000	12000	CC(C)C[C@H](NC(=O)OCc1ccccc1)C(=O)N[C@@H](Cc1ccc(O)cc1)C(=O)CF (HELM PEPTIDE1{[O=C(OCc1ccccc1)[*:2]].L.Y.[FC[*:1]]}$$$$V2.0)
